Values after ≈ are worked out from the molar mass of the structure shown. Active and inactive are the calls of the source. The calls are words filed in the database; no cut-off is given here.
Columns and labels:
Aspergillus flavus [1] = test: Antifungal activity against Aspergillus flavus relative to miconazole; assay type: functional
Candida albicans [2] = test: Antifungal activity against Candida albicans relative to miconazole; assay type: functional
Fusarium solani [3] = test: Antifungal activity against Fusarium solani; assay type: functional
Staphylococcus aureus [4] = test: Antibacterial activity against Staphylococcus aureus; assay type: functional
Aspergillus niger [5] = test: Antifungal activity against Aspergillus niger; assay type: functional
THP-1 [6] = test: Anti-inflammatory activity in Homo sapiens (human) THP1 cells assessed as inhibition of LPS-induced TNFalpha production at 10 uM incubated for 30 min prior to LPS-challenge measured after 24 hr by ELISA; assay type: functional
Candida albicans [7] = test: Antifungal activity against Candida albicans; assay type: functional
Aspergillus niger [8] = test: Antifungal activity against Aspergillus niger relative to miconazole; assay type: functional
Escherichia coli [9] = test: Antibacterial activity against Escherichia coli; assay type: functional
Bacillus subtilis [10] = test: Antibacterial activity against Bacillus subtilis; assay type: functional
Fusarium solani [11] = test: Antifungal activity against Fusarium solani relative to miconazole; assay type: functional
Salmonella typhimurium [12] = test: Antibacterial activity against Salmonella enterica subsp. enterica serovar Typhimurium; assay type: functional
THP-1 [13] = test: Anti-inflammatory activity in Homo sapiens (human) THP1 cells assessed as inhibition of LPS-induced IL6 production at 10 uM incubated for 30 min prior to LPS-challenge measured after 24 hr by ELISA; assay type: functional
Aspergillus flavus [14] = test: Antifungal activity against Aspergillus flavus; assay type: functional
Aspergillus niger [15] = test: Antifungal activity against Aspergillus niger up to 200 ug/ml; assay type: functional, organism-based
Escherichia coli [16] = test: Ratio of ciprofloxacin MIC to compound MIC for Escherichia coli; assay type: functional
Staphylococcus aureus [17] = test: Ratio of ciprofloxacin MIC to compound MIC for Staphylococcus aureus; assay type: functional
Salmonella typhimurium [18] = test: Ratio of ciprofloxacin MIC to compound MIC for Salmonella enterica subsp. enterica serovar Typhimurium; assay type: functional
Bacillus subtilis [19] = test: Ratio of ciprofloxacin MIC to compound MIC for Bacillus subtilis; assay type: functional
Candida albicans [20] = test: Antifungal activity against Candida albicans up to 200 ug/ml; assay type: functional, organism-based
Bacillus subtilis [21] = test: Antibacterial activity against Bacillus subtilis up to 200 ug/ml; assay type: functional, organism-based
Aspergillus flavus [22] = test: Antifungal activity against Aspergillus flavus up to 200 ug/ml; assay type: functional, organism-based
Fusarium solani [23] = test: Antifungal activity against Fusarium solani up to 200 ug/ml; assay type: functional, organism-based
Staphylococcus aureus [24] = test: Antibacterial activity against Staphylococcus aureus up to 200 ug/ml; assay type: functional, organism-based
THP-1 [25] = test: Anti-inflammatory activity in Homo sapiens (human) THP1 cells assessed as inhibition of LPS-induced TNFalpha production at 1 uM incubated for 30 min prior to LPS-challenge measured after 24 hr by ELISA; assay type: functional
THP-1 [26] = test: Anti-inflammatory activity in Homo sapiens (human) THP1 cells assessed as inhibition of LPS-induced IL6 production at 1 uM incubated for 30 min prior to LPS-challenge measured after 24 hr by ELISA; assay type: functional

Compound	MIC (Fusarium solani [3])	MIC (Staphylococcus aureus [4])	MIC (Aspergillus niger [5])	inhibition at 10 µM (THP-1 [6])	MIC (Candida albicans [7])	MIC (Escherichia coli [9])	MIC (Bacillus subtilis [10])	MIC (Salmonella typhimurium [12])	inhibition at 10 µM (THP-1 [13])	MIC (Aspergillus flavus [14])	other results
CCOC(=O)C1=C(C)NC(C)=C(C(=O)OCC)C1c1ccc(NC(=O)Nc2cc(Cl)ccc2Cl)cc1	10 µg/mL (≈ 18.8 µM)	15 µg/mL (≈ 28.2 µM)	30 µg/mL (≈ 56.3 µM)	36%	10 µg/mL (≈ 18.8 µM)	15 µg/mL (≈ 28.2 µM)	25 µg/mL (≈ 47 µM)	15 µg/mL (≈ 28.2 µM)	51%	20 µg/mL (≈ 37.6 µM)	Activity (Aspergillus flavus [1]): >50%; Activity (Candida albicans [2]): >50%; Activity (Aspergillus niger [8]): >50%; Activity (Fusarium solani [11]): >50%
Clc1ccc(COC(Cn2ccnc2)c2ccc(Cl)cc2Cl)c(Cl)c1 (stereo unspecified) [MICONAZOLE]	15 µg/mL (≈ 36 µM)		20 µg/mL (≈ 48.1 µM)		25 µg/mL (≈ 60.1 µM)					20 µg/mL (≈ 48.1 µM)	
CCOC(=O)C1=C(C)NC(C)=C(C(=O)OCC)C1c1ccc(N)cc1	90 µg/mL (≈ 261 µM)	60 µg/mL (≈ 174 µM)		0%	90 µg/mL (≈ 261 µM)	40 µg/mL (≈ 116 µM)	85 µg/mL (≈ 247 µM)	45 µg/mL (≈ 131 µM)	0%	90 µg/mL (≈ 261 µM)	Activity (Aspergillus niger [15]): inactive
CCOC(=O)C1=C(C)NC(C)=C(C(=O)OCC)C1c1ccc(NC(=O)Nc2ccc(C#N)cc2)cc1	25 µg/mL (≈ 51.2 µM)	10 µg/mL (≈ 20.5 µM)	10 µg/mL (≈ 20.5 µM)	0%	20 µg/mL (≈ 40.9 µM)	15 µg/mL (≈ 30.7 µM)	10 µg/mL (≈ 20.5 µM)	10 µg/mL (≈ 20.5 µM)	8%	20 µg/mL (≈ 40.9 µM)	Activity (Aspergillus flavus [1]): >50%; Activity (Candida albicans [2]): >50%; Ratio (Escherichia coli [16]): 2; Activity (Aspergillus niger [8]): >50%; Activity (Fusarium solani [11]): >50%; Ratio (Staphylococcus aureus [17]): 2; Ratio (Salmonella typhimurium [18]): 2; Ratio (Bacillus subtilis [19]): 2
CCOC(=O)C1=C(C)NC(C)=C(C(=O)OCC)C1c1ccc(NC(=O)Nc2ccc(Cl)cc2Cl)cc1	25 µg/mL (≈ 47 µM)	20 µg/mL (≈ 37.6 µM)	10 µg/mL (≈ 18.8 µM)	11%	15 µg/mL (≈ 28.2 µM)	10 µg/mL (≈ 18.8 µM)	35 µg/mL (≈ 65.7 µM)	20 µg/mL (≈ 37.6 µM)	24%	20 µg/mL (≈ 37.6 µM)	
CCOC(=O)C1=C(C)NC(C)=C(C(=O)OCC)C1c1ccc([N+](=O)[O-])cc1	90 µg/mL (≈ 240 µM)	90 µg/mL (≈ 240 µM)		0%		90 µg/mL (≈ 240 µM)		90 µg/mL (≈ 240 µM)	0%		Activity (Candida albicans [20]): inactive; Activity (Bacillus subtilis [21]): inactive; Activity (Aspergillus flavus [22]): inactive; Activity (Aspergillus niger [15]): inactive
CCOC(=O)C1=C(C)NC(C)=C(C(=O)OCC)C1c1ccc(NC(=O)Nc2ccc(F)cc2F)cc1	20 µg/mL (≈ 40 µM)	45 µg/mL (≈ 90.1 µM)	20 µg/mL (≈ 40 µM)	28%	35 µg/mL (≈ 70.1 µM)	25 µg/mL (≈ 50 µM)	50 µg/mL (≈ 100 µM)	25 µg/mL (≈ 50 µM)	54%	35 µg/mL (≈ 70.1 µM)	Ratio (Escherichia coli [16]): 2; Ratio (Staphylococcus aureus [17]): 2; Ratio (Salmonella typhimurium [18]): 2; Ratio (Bacillus subtilis [19]): 2
CCOC(=O)C1=C(C)NC(C)=C(C(=O)OCC)C1c1ccc(NC(=O)Nc2cc(C(F)(F)F)ccc2Cl)cc1	90 µg/mL (≈ 159 µM)	80 µg/mL (≈ 141 µM)	45 µg/mL (≈ 79.5 µM)	0%	65 µg/mL (≈ 115 µM)	65 µg/mL (≈ 115 µM)		90 µg/mL (≈ 159 µM)	12%	90 µg/mL (≈ 159 µM)	Activity (Bacillus subtilis [21]): inactive
CCOC(=O)C1=C(C)NC(C)=C(C(=O)OCC)C1c1ccc(NC(=O)Nc2ccc(Cl)cc2)cc1	20 µg/mL (≈ 40.2 µM)	65 µg/mL (≈ 131 µM)	20 µg/mL (≈ 40.2 µM)	0%	30 µg/mL (≈ 60.2 µM)	20 µg/mL (≈ 40.2 µM)	80 µg/mL (≈ 161 µM)	35 µg/mL (≈ 70.3 µM)	18%	20 µg/mL (≈ 40.2 µM)	
CCOC(=O)C1=C(C)NC(C)=C(C(=O)OCC)C1c1ccc(NC(=O)Nc2cc(F)ccc2F)cc1			90 µg/mL (≈ 180 µM)	78%	85 µg/mL (≈ 170 µM)	70 µg/mL (≈ 140 µM)		90 µg/mL (≈ 180 µM)	96%		Activity (Bacillus subtilis [21]): inactive; Activity (Fusarium solani [23]): inactive; Activity (Aspergillus flavus [22]): inactive; Activity (Staphylococcus aureus [24]): inactive
O=C(O)c1cn(C2CC2)c2cc(N3CCNCC3)c(F)cc2c1=O [CIPROFLOXACIN]		20 µg/mL (≈ 60.4 µM)				20 µg/mL (≈ 60.4 µM)	25 µg/mL (≈ 75.4 µM)	25 µg/mL (≈ 75.4 µM)			
CCOC(=O)C1=C(C)NC(C)=C(C(=O)OCC)C1c1ccc(NC(=O)Nc2ccc(Cl)cc2C(F)(F)F)cc1	60 µg/mL (≈ 106 µM)	55 µg/mL (≈ 97.2 µM)	85 µg/mL (≈ 150 µM)	83%	50 µg/mL (≈ 88.3 µM)	45 µg/mL (≈ 79.5 µM)	70 µg/mL (≈ 124 µM)	60 µg/mL (≈ 106 µM)	91%	80 µg/mL (≈ 141 µM)	
C[C@@H]1C[C@H]2[C@@H]3CCC4=CC(=O)C=C[C@]4(C)[C@@]3(F)[C@@H](O)C[C@]2(C)[C@@]1(O)C(=O)CO [DEXAMETHASONE]											inhibition at 1 µM (THP-1 [25]): 71%; inhibition at 1 µM (THP-1 [26]): 80%
CCOC(=O)C1=C(C)NC(C)=C(C(=O)OCC)C1c1ccc(NC(=O)Nc2ccc(C(F)(F)F)cc2)cc1	90 µg/mL (≈ 169 µM)	60 µg/mL (≈ 113 µM)	55 µg/mL (≈ 103 µM)	74%	45 µg/mL (≈ 84.7 µM)	90 µg/mL (≈ 169 µM)	85 µg/mL (≈ 160 µM)	90 µg/mL (≈ 169 µM)	86%	70 µg/mL (≈ 132 µM)	
CCOC(=O)C1=C(C)NC(C)=C(C(=O)OCC)C1c1ccc(NC(=O)Nc2ccc(F)cc2)cc1	85 µg/mL (≈ 177 µM)	40 µg/mL (≈ 83.1 µM)	45 µg/mL (≈ 93.5 µM)	42%	65 µg/mL (≈ 135 µM)	65 µg/mL (≈ 135 µM)	80 µg/mL (≈ 166 µM)	65 µg/mL (≈ 135 µM)	68%	85 µg/mL (≈ 177 µM)	

From ChEMBL document CHEMBL3044536, “The synthesis, anti-inflammatory, and anti-microbial activity evaluation of new series of 4-(3-arylureido)phenyl-1,4-dihydropyridine urea derivatives” (2013)
